Measurements from patent publication US20100215822A1, “MOUTHFEEL ENHANCING INGREDIENTS” (Firmenich SA, priority 2007, published 2010).
Entries after “also recorded” stand apart in the source; their conditions may differ. Like-named read-outs stand apart in the source and are kept apart here.

Legend:
[1] = system: skilled panelists; experiment: Evaluation of the mouthfeel enhancer in Diet Cola, tasted blind by panel; format: in vivo; conditions: for Results (mouthfeel, sweetness, off-notes and other descriptors): 5 mg in 300 mL commercial Diet Cola, tasted blind by 4-5 skilled panelists by comparison with Diet Cola without mouthfeel enhancer (reference); for Overall result: deliver the mouthfeel required in the reduced-sugar beverage without further generating undesirable off-notes: 5 mg in 300 mL Diet Cola
[2] = Solubility observed in Diet Cola samples
Description: 5 mg of each of the following compounds, all obtained from Avanti Polar Lipids, Inc., Alabama, USA was added to 300 mL of a commercially available Diet Cola in a bottle. The bottles were then closed and shaken by hand for 1 min at room temperature. Following this, the bottles were sonicated for 5 min in an ultrasonic bath and then stored at room temperature overnight. All samples were tasted blind by 4-5 skilled panelists and assessed, by comparison with a Diet Cola not containing any mouthfeel enhancer, for mouthfeel, sweetness, off-notes and other descriptors.

Row | Solubility in Diet Cola ([2]; 5 mg in 300 mL Diet Cola, shaken 1 min, sonicated 5 min, stored at room temperature overnight) | Solubility in Diet Cola [2] | Molecule | Results (mouthfeel, sweetness, off-notes and other descriptors) [1] | Overall result: deliver the mouthfeel required in the reduced-sugar beverage without further generating undesirable off-notes [1]
1 |  |  | CCCCCCCCCCCC(=O)OCC(COP(=O)(O)OCC(O)CO)OC(=O)CCCCCCCCCCC (stereo not shown) [Dilauroylphosphatidyl glycerol] | Sweeter, similar to reference, fatty, off-note, waxy,; also recorded: good sweetness, slightly flat aroma | 
2 |  |  | CCCCCCCC/C=C\CCCCCCCC(=O)OC[C@H](COP(=O)(O)OCC(O)CO)OC(=O)CCCCCCC/C=C\CCCCCCCC (stereo partly shown) [Dioleoylphosphatidyl glycerol] | chemical, slight off-note on taste | 
3 |  |  | CCCCCCCCCCCCCCCC(=O)OCC(COP(=O)(O)OCC(O)CO)OC(=O)CCCCCCCCCCCCCCC (stereo not shown) [Dipalmitoylphosphatidyl glycerol] | Seems less carbonated, less acidic, more citrusy; also recorded: aroma, better mouthfeel, less metallic, good; also recorded: no off-note | Excellent results
4 |  |  | CCCCCCCC/C=C\CCCCCCCC(=O)OC[C@H](COP(=O)(O)O)OC(=O)CCCCCCC/C=C\CCCCCCCC [Dioleoylphosphatidic acid] | More mouthfeel, fatty, fuller, very drying,; also recorded: mouthcoating, less lingering, oily | 
5 |  |  | CCCCCCCCCCCCCCCC(=O)OC[C@H](COP(=O)(O)O)OC(=O)CCCCCCCCCCCCCCC [Dipalmitoylphosphatidic acid] | smooth, good mouthfeel, slightly oily, no off-note; also recorded: More mouthfeel, fatty, fuller, heavy, sweeter, | Excellent results
6 | completely soluble |  | CCCCCCCCCCCCCCCC(=O)OCC(COP(=O)(O)OCCN)OC(=O)CCCCCCCCCCCCCCC (stereo not shown) [Dipalmitoylphosphatidyl ethanolamine] | less flavor, lingering fatty | 
7 |  |  | CCCCCC(=O)OCC(COP(=O)(O)O)OC(=O)CCCCC (stereo not shown) [Dicaproylphosphatidic acid] | Thin, typical diet cola, slight metallic off-note, and sweet, acidic, more lemon, lingering/long lasting, and oily | 
8 |  |  | CCCCCCCCCCCC(=O)OC[C@H](COP(=O)([O-])OCC[N+](C)(C)C)OC(=O)CCCCCCCCCCC [Dilauroylphosphatidyl choline] |  | Excellent results
9 |  |  | CCCCCCCCCCCC(=O)OC[C@H](COP(=O)(O)OCCN)OC(=O)CCCCCCCCCCC [Dilauroylphosphatidyl ethanolamine] | Very similar to reference, slightly fuller, sweeter,; also recorded: citrusy | 
10 |  |  | CCCCCCCCCCCCCC(=O)OC[C@H](COP(=O)([O-])OCC[N+](C)(C)C)OC(=O)CCCCCCCCCCCCC [Dimyristoylphosphatidylcholine] | carbonated, sweeter | Excellent results
11 |  |  | CCCCCC(=O)OC[C@H](COP(=O)(O)OCC[N+](C)(C)C)OC(=O)CCCCC [Dicaproylphosphatidyl choline] | More acidity than others, sweeter, smoother, fuller,; also recorded: more mouthfeel, similar mouthfeel | Excellent results
12 |  |  | CCCCCCCC(=O)OC[C@H](COP(=O)([O-])OCC[N+](C)(C)C)OC(=O)CCCCCCC [Dicapryloylphosphatidylcholine] | Some mouthfeel, similar to reference, slight off-note | 
13 |  |  | Dicaprylphosphatidylcholine | More mouthfeel, good mouthfeel, more body,; also recorded: creamy, sl. more sweet, good sweetness | Excellent results
14 |  |  | CCCCCCCCCCCC(=O)OC[C@H](COP(=O)(O)O)OC(=O)CCCCCCCCCCC [Dilauroylphosphatidic acid] | More Mouthfeel, fatty, fuller, clean, acidic, more; also recorded: sour and harsh, oily | 
15 |  |  | CCCCCCCCCC(=O)OC[C@@H](O)COP(=O)([O-])OCC[N+](C)(C)C [1-Capryl-2-hydroxy-glycero-3-phosphocholine] | slightly more mouthfeel, close to reference | 
16 |  | not completely soluble | CCCCCCCC/C=C\CCCCCCCC(=O)OC[C@H](COP(=O)(O)OCCN)OC(=O)CCCCCCC/C=C\CCCCCCCC [Dioleoylphosphatidyl ethanolamine] | Slightly sweeter, slightly more bitter, fatty/waxy off- | 
17 |  |  | CCCCCCCC/C=C\CCCCCCCC(=O)OCC(O)COP(=O)(O)OCC(O)CO (stereo not shown) [1-Oleoyl-2-hydroxy-glycero-3-phosphoglycerol] | less sour, more sweet, similar to reference | 
18 |  |  | CCCCCC(=O)OC[C@H](COP(=O)(O)OCCN)OC(=O)CCCCC [Dicaproylphosphatidyl ethanolamine] | Quite metallic, slightly more fatty, sweet lingering,; also recorded: thin, less sweet, less flavor, lingering fatty taste; | 
19 |  |  | CCCCCCCCCCCCCCCC(=O)OC[C@H](COP(=O)([O-])OCC[N+](C)(C)C)OC(=O)CCCCCCCCCCCCCCC [Dipalmitoylphosphatidyl choline] | Sweeter, nice sweetness but lingering, good; also recorded: difference, slightly fuller, slightly fatty | Excellent results
20 |  |  | CCCCCCCCCCCCCCCC(=O)OCC(O)COP(=O)(O)OCC(O)CO (stereo not shown) [1-Palmitoyl-2-hydroxy-glycero-3-phosphoglycerol] | slightly more mouthfeel, creamy, similar to reference | 
